From article PMC6568410, “A scorpion venom peptide derivative BmKn‒22 with potent antibiofilm activity against Pseudomonas aeruginosa” (PLoS ONE, 2019)
Where no end group is shown, it is not given here.

How the values were obtained:
[1] = test system: P. aeruginosa PAO1 biofilm formation; experiment: Biofilm formation assay, crystal violet staining; type: cell-based, Pseudomonas aeruginosa; conditions: for reduction of P. aeruginosa biofilms: 24 h, compared with untreated control, result in words
Method: (§1) The effect of BmKn‒2 peptide and derivatives on biofilm formation of P. aeruginosa PAO1 was determined according to the method published previously with some modifications. Briefly, 100 μL of the test peptides was plated into the wells of flat-bottomed 96-well microtiter plates (Nunc™, Roskilde, Denmark) at the final concentrations of 200 ‒ 800 μM. Aliquots of the P. aeruginosa PAO1 suspension were then inoculated to the wells of 96-well microtiter plates to obtain a final concentration of 10^6 CFU/mL. Culture without the test peptides was used as the untreated control. After incubation at 37 ^OC for 24 h without agitation, planktonic cells were removed and the plates were gently rinsed twice with phosphate buffered saline (PBS) pH 7.4. Biofilms were then stained with 0.1% crystal violet solution (Merck, Darmstadt, Germany) for 10 minutes at room temperature. Excess stains were rinsed off with PBS pH 7.4 and the plates were left dry at 37 ^OC for 2 h. Subsequently, biofilm biomass was solubilized with 30% acetic acid and the optical density (OD) measured at 550 nm using a microplate reader (BioTek Synergy HT).

[2] = test system: L929 mouse fibroblast cells; experiment: Cytotoxicity, MTT assay; type: cell-based; conditions: 800 µM, 24 h; for effect on viability of L929 cells: compared with untreated control, result in words; for Cell viability (%): L929 cells
Method: The toxicity of the test peptides against L929 mouse fibroblast cells was assessed by 3-(4,5-dimethylthiazol-2-yl)-2,5-diphenyltetrazolium bromide (MTT) assay. L929 mouse fibroblast cells from American Type Culture Collection (ATCC, Manassas, VA, USA) were cultured in Dulbecco's Modified Eagle Medium (DMEM; HyClone, Utah, USA) supplemented with 10% fetal bovine serum (Gibco, South America), 10 mM 4-(2-hydroxyethyl)-1 piperazineethanesulfonic acid (HEPES; HyClone, Utah, USA), 2 mM L-glutamine (Gibco, Brazil) and 100 U/mL penicillin and 100 μg/ml streptomycin (Gibco, USA) in a 5% CO2 atmosphere at 37°C. L929 cells (2×10^4 cells/well) were seeded in 96-well plates (Nunc) and incubated overnight. The culture medium was discarded and replaced by 100 μL of fresh DMEM containing the test compounds (final concentration 800 μM). Cells without the test compounds served as untreated control. After 24 h incubation, 20 μL of MTT solution (5 mg/mL; Sigma, St. Louis, MO, USA) was added and incubated for 3 h. The culture supernatant was removed and 100 μL dimethyl sulfoxide was added to each well to dissolve the formazan crystals. The absorbance was measured at 540 nm on a microplate reader (BioTek Synergy HT). Percentage of cell viability was calculated according to the equation: (OD of treated cells/ OD of untreated cells) × 100.

P. aeruginosa PAO1 [3] = experiment: Growth assay, standard plate counts; type: cell-based, Pseudomonas aeruginosa; conditions: 800 µM, 24 h; for effect on bacterial counts (growth): compared with untreated control, result in words
Method: The effects of BmKn‒2 peptide and its derivatives on growth of P. aeruginosa PAO1 were carried out as described previously with some modifications. Bacterial suspension (10^6 CFU/mL) and the test peptides (800 μM, final concentration) were incubated at 37 ^OC at 150 rpm. Bacterial culture without the test peptides was used as the untreated control. After 24 h, bacterial concentration was evaluated. Cultures from each treatment were taken and 10-fold serial dilution was performed; 100 μL of each dilution was then spread on LB agar plates. Following incubation at 37°C for 24 h, the colonies were counted and expressed as log10 CFU/mL.

[4] = test system: P. aeruginosa PAO1 biofilms; experiment: Antibiofilm activity of BmKn-22 and azithromycin alone or in combination, crystal violet; type: cell-based, Pseudomonas aeruginosa
Method: as §1
Briefly, P. aeruginosa PAO1 suspension (10^6 CFU/mL, final concentration) was added to the wells of flat-bottomed 96-well microtiter plates (Nunc) containing the test peptide, azithromycin (AZM; Sigma) alone or in combinations. […] Biofilm formation was employed by measuring biofilm biomass stained with crystal violet as a protocol described in previous section.

P. aeruginosa PAO1 [5] = experiment: MIC, broth microdilution; type: cell-based, Pseudomonas aeruginosa; conditions: broth microdilution in LB broth, 10^6 CFU/mL, 37 °C, 24 h; printed only as half of the MIC
Method: MIC of azithromycin against P. aeruginosa was determined by using broth microdilution assay according to the protocol previously described with some modifications. Twofold serial dilutions of azithromycin (AZM; Sigma, St. Louis, USA) were prepared in LB broth in the wells of flat-bottomed 96-well microtiter plates (Nunc). Aliquots of P. aeruginosa PAO1 suspension at a final concentration of 10^6 CFU/mL was added to the wells of flat-bottomed 96-well microtiter plates (Nunc).

sheep red blood cells = experiment: Hemolytic assay; type: cell-based; conditions: 800 µM, 37 °C, 1 h
Method: Hemolytic activity of the test peptides was assayed according to a protocol described previously. Suspension of 2% sheep red blood cells (100 μL) prepared in PBS pH 7.4 was incubated with 100 μL of the test peptides (800 μM, final concentration). After incubation at 37 ^OC for 1 h, the suspension was centrifuged at 1,000 g for 5 min followed by transferring 100 μL of the supernatant to 96 well-microtiter plate (Nunc). Released hemoglobin was then determined by measuring an absorbance at 405 nm using a microplate reader (BioTek Synergy HT). Positive and negative controls in this assay were 1% Triton X-100 and PBS pH 7.4, respectively. Hemolysis (%) was calculated using an equation: (OD405 nm peptide ‒ OD405 nm PBS pH 7.4)/(OD405 nm 1% Triton X-100 ‒ OD405 nm PBS pH 7.4) × 100.

[6] = test system: P. aeruginosa PAO1 established biofilms; experiment: Established (24 h-preformed) biofilm assay, crystal violet staining; type: cell-based, Pseudomonas aeruginosa
Method: Antibiofilm activity of the test peptides was also examined against established biofilms as follows. Aliquots of the P. aeruginosa PAO1 suspension adjusted to a final concentration of 10^6 CFU/mL were seeded into the wells of flat-bottomed 96-well microtiter plates (Nunc). Biofilms were established at 37°C for 24 h. After incubation, nonadherent planktonic cells were removed by gently washing the wells with sterile PBS pH 7.4. Preformed biofilms were then treated with the test peptides at concentrations of 200 ‒ 800 μM and incubated at 37°C for 24 h. Culture without the test peptides served as the untreated control. After the incubation, the test peptides were aspirated gently and the plates were rinsed twice with PBS pH 7.4. Biofilm biomass was subsequently quantified by 0.1% crystal violet staining as previously described.

[7] = 37 °C, 150 rpm, plate counts, untreated control 9.183, mean of 3 independent experiments
[8] = Exp. 1 (untreated control 9.082)
[9] = Exp. 2 (untreated control 9.198)
[10] = Exp. 3 (untreated control 9.268)

Molecule	reduction of P. aeruginosa biofilms ([1]; 800 µM)	effect on viability of L929 cells [2]	Cell viability (%) ([2]; Exp. 1)	Cell viability (%) ([2]; Exp. 2)	Cell viability (%) ([2]; Exp. 3)	Bacterial growth, Log10 CFU/mL (P. aeruginosa PAO1 [3]; [7]) [Log10 CFU/mL]	effect on bacterial counts (growth) (P. aeruginosa PAO1 [3])	Bacterial growth, Log10 CFU/mL (P. aeruginosa PAO1 [3]; [8]) [Log10 CFU/mL]	Bacterial growth, Log10 CFU/mL (P. aeruginosa PAO1 [3]; [9]) [Log10 CFU/mL]	Bacterial growth, Log10 CFU/mL (P. aeruginosa PAO1 [3]; [10]) [Log10 CFU/mL]	lysis of red blood cells (sheep red blood cells)	further results
FIGAIARLLSKIF [BmKn-2, reference compound]	marked reduction	significant decrease (P < 0.001) in viability	2.236	2.027	1.988	6.872	reduction in bacterial counts	6.755	6.448	7.411	–	–
CC[C@H]1OC(=O)[C@H](C)[C@@H](O[C@H]2C[C@@](C)(OC)[C@@H](O)[C@H](C)O2)[C@H](C)[C@@H](O[C@@H]2O[C@H](C)C[C@H](N(C)C)[C@H]2O)[C@](C)(O)C[C@@H](C)CN(C)[C@H](C)[C@@H](O)[C@]1(C)O [AZM, azithromycin, reference compound]	–	–	–	–	–	–	–	–	–	–	–	Biofilm biomass (% control) ([4]; azithromycin alone 64 µg/ml (1/2 MIC), 24 h, 37 °C, crystal violet, mean of 3 independent experiments): 100.000 % control; Biofilm biomass (% control) ([4]; azithromycin alone 64 µg/ml, Exp. 1): 100.000 % control; Biofilm biomass (% control) ([4]; azithromycin alone 64 µg/ml, Exp. 2): 100.000 % control; Biofilm biomass (% control) ([4]; azithromycin alone 64 µg/ml, Exp. 3): 100.000 % control; biofilm inhibition by azithromycin alone ([4]; sub-MIC dose (1/2 MIC, 64 µg/mL), result in words): significant biofilm inhibition was not evident; sub-MIC (1/2 of MIC) dose (P. aeruginosa PAO1 [5]): 64 µg/mL
FIGAIARL [BmKn-25]	less biofilm reduction activities	low effects on cell viability	82.909	93.165	83.012	9.293	no significant (P > 0.05) differences in bacterial counts	9.255	9.288	9.335	less or no hemolysis	–
FIGAIARLLSKI [BmKn-21]	marked reduction	significant decrease (P < 0.001) in viability	1.974	1.699	1.835	6.183	reduction in bacterial counts	6.000	6.314	6.236	–	–
FIGAIARLLS [BmKn-23]	marked reduction	low effects on cell viability	80.383	84.400	88.135	9.429	no significant (P > 0.05) differences in bacterial counts	9.488	9.359	9.440	less or no hemolysis	Biofilm inhibition (%), biofilm formation ([1]; 200 µM, Exp. 1): 28.654%; Biofilm inhibition (%), biofilm formation ([1]; 200 µM, Exp. 2): 28.944%; Biofilm inhibition (%), biofilm formation ([1]; 200 µM, Exp. 3): 40.209%; Biofilm inhibition (%), biofilm formation ([1]; 400 µM, Exp. 1): 34.053%; Biofilm inhibition (%), biofilm formation ([1]; 400 µM, Exp. 2): 36.612%; Biofilm inhibition (%), biofilm formation ([1]; 400 µM, Exp. 3): 46.402%; Biofilm inhibition (%), biofilm formation ([1]; 800 µM, Exp. 1): 44.669%; Biofilm inhibition (%), biofilm formation ([1]; 800 µM, Exp. 2): 49.083%; Biofilm inhibition (%), biofilm formation ([1]; 800 µM, Exp. 3): 70.992%; Biofilm inhibition (%), preformed biofilm ([6]; 200 µM, Exp. 1): 0.000%; Biofilm inhibition (%), preformed biofilm ([6]; 200 µM, Exp. 2): 3.802%; Biofilm inhibition (%), preformed biofilm ([6]; 200 µM, Exp. 3): 6.512%; Biofilm inhibition (%), preformed biofilm ([6]; 400 µM, Exp. 1): 12.191%; Biofilm inhibition (%), preformed biofilm ([6]; 400 µM, Exp. 2): 4.570%; Biofilm inhibition (%), preformed biofilm ([6]; 400 µM, Exp. 3): 0.000%; Biofilm inhibition (%), preformed biofilm ([6]; 800 µM, Exp. 1): 3.155%; Biofilm inhibition (%), preformed biofilm ([6]; 800 µM, Exp. 2): 0.000%; Biofilm inhibition (%), preformed biofilm ([6]; 800 µM, Exp. 3): 8.639%; % inhibition of 24 h-preformed P. aeruginosa biofilms ([6]; range over 200 - 800 µM, 24 h treatment): No eradication activity
FIGAIAR [BmKn-26]	less biofilm reduction activities	low effects on cell viability	85.233	87.113	79.724	9.247	no significant (P > 0.05) differences in bacterial counts	9.213	9.213	9.314	less or no hemolysis	–
FIGAIARLL [BmKn-24]	less biofilm reduction activities	low effects on cell viability	84.274	81.538	83.751	9.313	no significant (P > 0.05) differences in bacterial counts	9.304	9.273	9.364	less or no hemolysis	–
